± gives the expanded uncertainty stated by the source.
Assay: molar heat capacity at constant pressure
Settings: 101.33 kPa, Liquid, heat bridge-scanning calorimeter

## CCCCn1cc[n+](C)c1.F[P-](F)(F)(F)(F)F [1-butyl-3-methylimidazolium hexafluorophosphate]
480.79 K
  molar heat capacity at constant pressure: 497.89 ± 9.9 J/K/mol
480.92 K
  molar heat capacity at constant pressure: 498.17 ± 9.9 J/K/mol
481.06 K
  molar heat capacity at constant pressure: 498.17 ± 9.9 J/K/mol
481.2 K
  molar heat capacity at constant pressure: 498.17 ± 9.9 J/K/mol
481.5 K
  molar heat capacity at constant pressure: 498.46 ± 9.9 J/K/mol
481.64 K
  molar heat capacity at constant pressure: 498.74 ± 9.9 J/K/mol
481.78 K
  molar heat capacity at constant pressure: 499.31 ± 9.9 J/K/mol
481.91 K
  molar heat capacity at constant pressure: 498.74 ± 9.9 J/K/mol
482.05 K
  molar heat capacity at constant pressure: 498.46 ± 9.9 J/K/mol
482.2 K
  molar heat capacity at constant pressure: 498.46 ± 9.9 J/K/mol
482.34 K
  molar heat capacity at constant pressure: 498.46 ± 9.9 J/K/mol
482.47 K
  molar heat capacity at constant pressure: 498.46 ± 9.9 J/K/mol
482.61 K
  molar heat capacity at constant pressure: 498.46 ± 9.9 J/K/mol
482.75 K
  molar heat capacity at constant pressure: 498.46 ± 9.9 J/K/mol
482.89 K
  molar heat capacity at constant pressure: 498.46 ± 9.9 J/K/mol
483.19 K
  molar heat capacity at constant pressure: 498.46 ± 9.9 J/K/mol
483.32 K
  molar heat capacity at constant pressure: 498.74 ± 9.9 J/K/mol
483.46 K
  molar heat capacity at constant pressure: 499.02 ± 9.9 J/K/mol
483.6 K
  molar heat capacity at constant pressure: 499.02 ± 9.9 J/K/mol
483.74 K
  molar heat capacity at constant pressure: 499.31 ± 9.9 J/K/mol
483.87 K
  molar heat capacity at constant pressure: 499.31 ± 9.9 J/K/mol
484.01 K
  molar heat capacity at constant pressure: 499.31 ± 9.9 J/K/mol
484.15 K
  molar heat capacity at constant pressure: 500.16 ± 9.9 J/K/mol
484.29 K
  molar heat capacity at constant pressure: 500.16 ± 9.9 J/K/mol
484.59 K
  molar heat capacity at constant pressure: 499.59 ± 9.9 J/K/mol
484.72 K
  molar heat capacity at constant pressure: 499.59 ± 9.9 J/K/mol
484.86 K
  molar heat capacity at constant pressure: 499.31 ± 9.9 J/K/mol
485 K
  molar heat capacity at constant pressure: 499.59 ± 9.9 J/K/mol
485.14 K
  molar heat capacity at constant pressure: 499.88 ± 9.9 J/K/mol
485.27 K
  molar heat capacity at constant pressure: 499.59 ± 9.9 J/K/mol
485.41 K
  molar heat capacity at constant pressure: 499.88 ± 9.9 J/K/mol
485.55 K
  molar heat capacity at constant pressure: 499.59 ± 9.9 J/K/mol
485.69 K
  molar heat capacity at constant pressure: 500.16 ± 9.9 J/K/mol
485.83 K
  molar heat capacity at constant pressure: 500.45 ± 9.9 J/K/mol
485.96 K
  molar heat capacity at constant pressure: 501.01 ± 9.9 J/K/mol
486.26 K
  molar heat capacity at constant pressure: 500.73 ± 9.9 J/K/mol
486.4 K
  molar heat capacity at constant pressure: 501.01 ± 9.9 J/K/mol
486.53 K
  molar heat capacity at constant pressure: 501.01 ± 9.9 J/K/mol
486.67 K
  molar heat capacity at constant pressure: 500.45 ± 9.9 J/K/mol
486.81 K
  molar heat capacity at constant pressure: 500.16 ± 9.9 J/K/mol
486.95 K
  molar heat capacity at constant pressure: 500.16 ± 9.9 J/K/mol
487.08 K
  molar heat capacity at constant pressure: 500.45 ± 9.9 J/K/mol
487.22 K
  molar heat capacity at constant pressure: 501.01 ± 9.9 J/K/mol
487.36 K
  molar heat capacity at constant pressure: 500.73 ± 9.9 J/K/mol
487.66 K
  molar heat capacity at constant pressure: 502.15 ± 9.9 J/K/mol
487.8 K
  molar heat capacity at constant pressure: 501.58 ± 9.9 J/K/mol
487.94 K
  molar heat capacity at constant pressure: 501.3 ± 9.9 J/K/mol
488.07 K
  molar heat capacity at constant pressure: 501.01 ± 9.9 J/K/mol
488.21 K
  molar heat capacity at constant pressure: 501.01 ± 9.9 J/K/mol
488.35 K
  molar heat capacity at constant pressure: 501.87 ± 9.9 J/K/mol
488.48 K
  molar heat capacity at constant pressure: 501.3 ± 9.9 J/K/mol
488.62 K
  molar heat capacity at constant pressure: 501.01 ± 9.9 J/K/mol
488.77 K
  molar heat capacity at constant pressure: 500.73 ± 9.9 J/K/mol
488.91 K
  molar heat capacity at constant pressure: 501.3 ± 9.9 J/K/mol
489.05 K
  molar heat capacity at constant pressure: 501.58 ± 9.9 J/K/mol
489.34 K
  molar heat capacity at constant pressure: 501.01 ± 9.9 J/K/mol
489.48 K
  molar heat capacity at constant pressure: 501.58 ± 9.9 J/K/mol
489.62 K
  molar heat capacity at constant pressure: 501.3 ± 9.9 J/K/mol
489.75 K
  molar heat capacity at constant pressure: 501.87 ± 9.9 J/K/mol
489.89 K
  molar heat capacity at constant pressure: 501.3 ± 9.9 J/K/mol
490.03 K
  molar heat capacity at constant pressure: 501.01 ± 9.9 J/K/mol
490.16 K
  molar heat capacity at constant pressure: 501.3 ± 9.9 J/K/mol
490.3 K
  molar heat capacity at constant pressure: 501.87 ± 9.9 J/K/mol
490.44 K
  molar heat capacity at constant pressure: 501.01 ± 9.9 J/K/mol
490.74 K
  molar heat capacity at constant pressure: 500.73 ± 9.9 J/K/mol
490.88 K
  molar heat capacity at constant pressure: 501.3 ± 9.9 J/K/mol
491.02 K
  molar heat capacity at constant pressure: 501.01 ± 9.9 J/K/mol
491.15 K
  molar heat capacity at constant pressure: 501.01 ± 9.9 J/K/mol
491.29 K
  molar heat capacity at constant pressure: 501.01 ± 9.9 J/K/mol
491.43 K
  molar heat capacity at constant pressure: 501.01 ± 9.9 J/K/mol
491.56 K
  molar heat capacity at constant pressure: 500.73 ± 9.9 J/K/mol
491.7 K
  molar heat capacity at constant pressure: 501.3 ± 9.9 J/K/mol
491.84 K
  molar heat capacity at constant pressure: 501.58 ± 9.9 J/K/mol
491.98 K
  molar heat capacity at constant pressure: 501.3 ± 9.9 J/K/mol
492.11 K
  molar heat capacity at constant pressure: 501.01 ± 9.9 J/K/mol
492.41 K
  molar heat capacity at constant pressure: 501.3 ± 9.9 J/K/mol
492.55 K
  molar heat capacity at constant pressure: 502.15 ± 9.9 J/K/mol
492.69 K
  molar heat capacity at constant pressure: 501.87 ± 9.9 J/K/mol
492.82 K
  molar heat capacity at constant pressure: 502.43 ± 9.9 J/K/mol
492.96 K
  molar heat capacity at constant pressure: 502.72 ± 9.9 J/K/mol
493.1 K
  molar heat capacity at constant pressure: 502.15 ± 9.9 J/K/mol
493.23 K
  molar heat capacity at constant pressure: 501.87 ± 9.9 J/K/mol
493.37 K
  molar heat capacity at constant pressure: 501.58 ± 9.9 J/K/mol
493.51 K
  molar heat capacity at constant pressure: 501.3 ± 9.9 J/K/mol
493.81 K
  molar heat capacity at constant pressure: 501.3 ± 9.9 J/K/mol
493.95 K
  molar heat capacity at constant pressure: 502.43 ± 9.9 J/K/mol
494.09 K
  molar heat capacity at constant pressure: 503.29 ± 9.9 J/K/mol
494.22 K
  molar heat capacity at constant pressure: 502.72 ± 9.9 J/K/mol
494.36 K
  molar heat capacity at constant pressure: 502.72 ± 9.9 J/K/mol
494.5 K
  molar heat capacity at constant pressure: 502.72 ± 9.9 J/K/mol
494.64 K
  molar heat capacity at constant pressure: 502.72 ± 9.9 J/K/mol
494.77 K
  molar heat capacity at constant pressure: 502.72 ± 9.9 J/K/mol
494.91 K
  molar heat capacity at constant pressure: 502.72 ± 9.9 J/K/mol
495.05 K
  molar heat capacity at constant pressure: 502.72 ± 9.9 J/K/mol
495.2 K
  molar heat capacity at constant pressure: 503.29 ± 9.9 J/K/mol
495.5 K
  molar heat capacity at constant pressure: 502.72 ± 9.9 J/K/mol

From the NIST ThermoML archive (doi:10.1021/je034102r)
